Experimental data: a compilation of properties of binary mixtures (doi:10.1016/j.molliq.2022.120410)

Assay: xn = mol fraction of the nth substance listed
Conditions: 101.3 kPa

OCCOCCO + CC[NH3+].O=[N+]([O-])[O-]
x2 = 0
Conditions | speed of sound [m/s]
298.1 K | 1580.6
308.1 K | 1556.6

CC[NH3+].O=[N+]([O-])[O-] + OCCOCCO
speed of sound [m/s]
Conditions | 298.1 K | 308.1 K | 318.1 K
x1 = 0.0488 | 1599.6 | 1576.8 | 1553.8
x1 = 0.0983 | 1614.6 | 1592 | 1569.5
x1 = 0.197 | 1632 | 1609.6 | 1587.5
x1 = 0.2961 | 1639.9 | 1619.1 | 1598.3
x1 = 0.3955 | 1644.5 | 1625.4 | 1605.9
x1 = 0.4954 | 1643.9 | 1625.6 | 1607.3
x1 = 0.5955 | 1643.2 | 1626.3 | 1609.1
x1 = 0.6961 | 1641.7 | 1625.6 | 1609.1
x1 = 0.797 | 1640 | – | 1607.8
x1 = 0.8983 | 1638.6 | 1622.8 | 1607.3
x1 = 1 | – | 1624.7 | 1609.3
